From Sander's compilation of Henry's law constants

Key:
[1] = Henry solubility constant Hcp at 283 K (mol/(m3 Pa)); settings: reference: Heal et al. (1995)
[2] = Henry solubility constant Hcp at 298.15 K (mol/(m3 Pa))
[3] = Henry solubility constant Hcp at 323 K (mol/(m3 Pa)); settings: reference: Dallos et al. (1983)
[4] = Henry solubility constant Hcp at 287 K (mol/(m3 Pa)); settings: reference: Hempel (1901)
[5] = Henry solubility constant Hcp at 353 K (mol/(m3 Pa)); settings: reference: St-Pierre et al. (2014)
[6] = Henry solubility constant Hcp at 333 K (mol/(m3 Pa)); settings: reference: Severit (1997)
[7] = Henry solubility constant Hcp at 275 K (mol/(m3 Pa)); settings: reference: Katrib et al. (2001)
[8] = Henry solubility constant Hcp at 290 K (mol/(m3 Pa)); settings: reference: Disselkamp et al. (1999)

For `Nc1ccccc1` [aminobenzene], the “Henry solubility constant Hcp at 283 K” value [1] was 1.2, the “Henry solubility constant Hcp” value ([2]; reference: Jayasinghe et al. (1992)) was 5 and the “Henry solubility constant Hcp at 323 K” value [3] was 1.1.

In the case of `O=C=S` [carbon oxide sulfide], the “Henry solubility constant Hcp at 287 K” value [4] was 0.00034, the “Henry solubility constant Hcp” value ([2]; reference: De Bruyn et al. (1995b)) was 0.00022 and the “Henry solubility constant Hcp” value ([2]; reference: Stock and Kuß (1917)) was 0.00024. For the same molecule, the “Henry solubility constant Hcp” value ([2]; reference: Winkler (1906)) was 0.00021 and the “Henry solubility constant Hcp” value ([2]; reference: Winkler (1907)) was 0.00021.

In the case of `O=S=O` [sulfur dioxide], the “Henry solubility constant Hcp” value ([2]; reference: Johnstone and Leppla (1934)) was 0.012, the “Henry solubility constant Hcp” value ([2]; reference: Schoenfeld (1855)) was 0.014 and the “Henry solubility constant Hcp at 353 K” value [5] was 0.4.

In the case of `[Cl][Hg][Cl]` [mercury dichloride], the “Henry solubility constant Hcp at 333 K” value [6] was 1000.

With `ClBr` [bromine chloride] the “Henry solubility constant Hcp at 275 K” value [7] was under 0.062, the “Henry solubility constant Hcp” value ([2]; reference: Bartlett and Margerum (1999)) was 0.0093 and the “Henry solubility constant Hcp at 290 K” value [8] was 0.015.
